In publication PMC3814616, “BRAF inhibitors suppress apoptosis through off-target inhibition of JNK signaling” (eLife, 2013):
“Also recorded” adds a separate entry of the source.

What was measured:
[1] = system: HRAS^G12V-transformed HaCaT cells (SCR, TKD); assay: Soft agar colony formation; assay type: cell-based, human; settings: 1.0 μM, SCR and TKD cells
phospho-JNK = assay: Western blot, UV-induced phospho-JNK in cSCC and HaCaT cell lines; assay type: cell-based, human; settings: 1 μM, post-radiation
SRB1 cells = assay: UV-induced apoptosis, FACS Annexin V+, TMRE-low; assay type: cell-based, human; settings: 1 kJ/m^2 UVB, 1 μM, 24 hr, vs DMSO
NHEK cells = assay: UV-induced apoptosis, FACS Annexin V+, TMRE-low; assay type: cell-based, human; settings: 1 kJ/m^2 UVB, 1 μM, 24 hr, vs DMSO
MST1 (STK4) = target: T1, MST1 (STK4) (Homo sapiens, UniProt Q13043); design: method as in Tsai et al., 2008; settings: ref Tsai et al., 2008; read-out: Published biochemical IC50; cited from earlier work
T1 construct: purchased KINOMEscan (DiscoveRx), San Diego, CA
T1 sequence (Q13043 1-487): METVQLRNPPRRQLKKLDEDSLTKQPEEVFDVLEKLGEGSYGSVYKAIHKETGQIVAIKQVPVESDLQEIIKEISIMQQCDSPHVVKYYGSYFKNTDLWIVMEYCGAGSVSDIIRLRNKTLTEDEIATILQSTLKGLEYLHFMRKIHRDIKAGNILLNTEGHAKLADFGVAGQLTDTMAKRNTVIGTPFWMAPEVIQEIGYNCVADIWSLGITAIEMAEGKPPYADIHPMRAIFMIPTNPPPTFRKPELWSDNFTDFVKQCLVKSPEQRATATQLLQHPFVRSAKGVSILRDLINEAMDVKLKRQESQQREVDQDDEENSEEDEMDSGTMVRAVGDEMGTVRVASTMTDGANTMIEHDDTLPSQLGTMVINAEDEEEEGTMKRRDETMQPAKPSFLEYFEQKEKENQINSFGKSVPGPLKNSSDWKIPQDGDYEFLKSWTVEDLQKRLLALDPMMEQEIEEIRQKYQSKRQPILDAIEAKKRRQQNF

BRAF(V600E) = BRAF(V600E) (Homo sapiens, UniProt P15056, V600E); assay: biochemical
TAOK1 = target: T2, TAOK1 (Homo sapiens, UniProt Q7L7X3); design: method as in Tsai et al., 2008; settings: ref Tsai et al., 2008; read-out: Published biochemical IC50; cited from earlier work
T2 construct: purchased KINOMEscan (DiscoveRx), San Diego, CA
T2 sequence (Q7L7X3 1-1001): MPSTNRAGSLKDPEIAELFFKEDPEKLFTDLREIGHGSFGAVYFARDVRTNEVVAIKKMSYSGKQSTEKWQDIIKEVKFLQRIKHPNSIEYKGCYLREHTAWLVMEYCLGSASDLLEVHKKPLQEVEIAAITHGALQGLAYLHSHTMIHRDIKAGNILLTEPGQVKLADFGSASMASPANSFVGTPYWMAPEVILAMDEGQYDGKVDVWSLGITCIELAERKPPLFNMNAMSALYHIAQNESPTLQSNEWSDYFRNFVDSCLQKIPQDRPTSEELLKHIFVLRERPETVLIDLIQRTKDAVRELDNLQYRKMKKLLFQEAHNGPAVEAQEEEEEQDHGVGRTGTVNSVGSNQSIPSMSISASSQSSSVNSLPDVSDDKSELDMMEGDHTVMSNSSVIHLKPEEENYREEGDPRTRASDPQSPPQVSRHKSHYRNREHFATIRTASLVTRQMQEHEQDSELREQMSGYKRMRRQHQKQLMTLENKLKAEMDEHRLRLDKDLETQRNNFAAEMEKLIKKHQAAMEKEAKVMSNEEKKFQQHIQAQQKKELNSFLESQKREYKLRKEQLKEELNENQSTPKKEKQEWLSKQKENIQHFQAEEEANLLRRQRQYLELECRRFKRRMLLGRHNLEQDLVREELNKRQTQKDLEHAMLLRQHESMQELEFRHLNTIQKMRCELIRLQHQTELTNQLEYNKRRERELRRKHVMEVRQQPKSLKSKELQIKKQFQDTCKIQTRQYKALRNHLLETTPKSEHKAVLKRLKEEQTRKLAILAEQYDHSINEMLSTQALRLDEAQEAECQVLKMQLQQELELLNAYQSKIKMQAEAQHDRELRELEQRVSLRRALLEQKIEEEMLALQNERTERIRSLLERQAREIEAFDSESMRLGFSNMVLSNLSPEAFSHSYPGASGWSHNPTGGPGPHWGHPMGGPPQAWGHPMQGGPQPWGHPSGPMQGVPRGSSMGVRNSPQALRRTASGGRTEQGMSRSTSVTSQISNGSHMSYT

[2] = system: epidermal keratinocytes of C57BL/6 mice; assay: Acute UVR-induced epidermal apoptosis in mouse skin; settings: in vivo
Text: Cutaneous squamous cell carcinomas biopsied from patients treated with or without BRAF-inhibitor were obtained either under clinical trials (Roche) or separate IRB approval (LAB08-0750). Staining levels were quantified by counting positively labeled cells and dividing by the total area of the tumor tissue within each sample. To measure tumor areas, all samples were photographed, tumor cells outlined, and total pixel numbers calculated using included image analysis tools in Adobe Photoshop and standardized to a hemacytometer to convert to mm^2. To measure apoptosis in irradiated skin, pyknotic or dyskeratotic epidermal keratinocytes were counted and normalized to length (mm) of epidermis.

COLO16 cells = assay: UV-induced apoptosis, FACS Annexin V+, TMRE-low; assay type: cell-based, human; settings: 1 kJ/m^2 UVB, 1 μM, 24 hr, vs DMSO
MLK3 (MAP3K11) = target: T3, MLK3 (MAP3K11) (Homo sapiens, UniProt Q16584); assay: Quantitative competitive binding assay (KINOMEscan)
T3 construct: purchased KINOMEscan (DiscoveRx), San Diego, CA

FGR = target: T4, FGR (Homo sapiens, UniProt P09769); design: method as in Bollag et al., 2010; settings: ref Bollag et al., 2010; read-out: Published biochemical IC50; cited from earlier work
T4 construct: purchased KINOMEscan (DiscoveRx), San Diego, CA

human full-length ZAK = target: T5, human full-length ZAK (Homo sapiens, UniProt Q9NYL2); assay: In vitro kinase assay (Reaction Biology); assay type: biochemical
T5 construct: In vitro kinase assays were performed using human full-length ZAK; purchased Reaction Biology

MINK (MINK1) = target: T6, MINK (MINK1) (Homo sapiens, UniProt Q8N4C8); design: method as in Bollag et al., 2010; settings: ref Bollag et al., 2010; read-out: Published biochemical IC50; cited from earlier work
T6 construct: purchased KINOMEscan (DiscoveRx), San Diego, CA

[3] = read-out: Percent control (50 nM)
[4] = read-out: Percent control (200 nM)
[5] = read-out: Percent control (1000 nM)
[6] = read-out: Percent control (10 μM)

T3 sequence (Q16584 whole entry): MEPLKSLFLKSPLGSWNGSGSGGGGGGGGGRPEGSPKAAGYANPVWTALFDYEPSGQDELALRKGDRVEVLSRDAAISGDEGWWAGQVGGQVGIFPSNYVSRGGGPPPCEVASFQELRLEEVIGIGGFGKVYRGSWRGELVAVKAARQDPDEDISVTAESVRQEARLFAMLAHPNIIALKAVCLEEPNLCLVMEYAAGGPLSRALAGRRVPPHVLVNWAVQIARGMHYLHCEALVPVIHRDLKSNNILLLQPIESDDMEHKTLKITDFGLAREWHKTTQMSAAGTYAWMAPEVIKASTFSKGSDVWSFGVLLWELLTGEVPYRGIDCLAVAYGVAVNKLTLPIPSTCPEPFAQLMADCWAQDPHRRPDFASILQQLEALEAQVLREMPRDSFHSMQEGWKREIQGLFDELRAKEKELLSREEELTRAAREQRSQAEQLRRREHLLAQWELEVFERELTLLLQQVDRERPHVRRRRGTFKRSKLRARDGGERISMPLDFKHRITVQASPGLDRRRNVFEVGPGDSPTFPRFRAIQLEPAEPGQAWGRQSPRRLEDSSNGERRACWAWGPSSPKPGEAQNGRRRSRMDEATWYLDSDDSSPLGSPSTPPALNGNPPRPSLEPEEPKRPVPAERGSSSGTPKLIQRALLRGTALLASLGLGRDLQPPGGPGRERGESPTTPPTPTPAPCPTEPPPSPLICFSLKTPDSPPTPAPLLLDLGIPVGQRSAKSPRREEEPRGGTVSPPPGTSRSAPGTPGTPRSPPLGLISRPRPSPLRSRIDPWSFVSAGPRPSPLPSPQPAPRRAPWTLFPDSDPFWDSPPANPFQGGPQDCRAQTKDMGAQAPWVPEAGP
Sequence of BRAF(V600E) (P15056 whole entry V600E): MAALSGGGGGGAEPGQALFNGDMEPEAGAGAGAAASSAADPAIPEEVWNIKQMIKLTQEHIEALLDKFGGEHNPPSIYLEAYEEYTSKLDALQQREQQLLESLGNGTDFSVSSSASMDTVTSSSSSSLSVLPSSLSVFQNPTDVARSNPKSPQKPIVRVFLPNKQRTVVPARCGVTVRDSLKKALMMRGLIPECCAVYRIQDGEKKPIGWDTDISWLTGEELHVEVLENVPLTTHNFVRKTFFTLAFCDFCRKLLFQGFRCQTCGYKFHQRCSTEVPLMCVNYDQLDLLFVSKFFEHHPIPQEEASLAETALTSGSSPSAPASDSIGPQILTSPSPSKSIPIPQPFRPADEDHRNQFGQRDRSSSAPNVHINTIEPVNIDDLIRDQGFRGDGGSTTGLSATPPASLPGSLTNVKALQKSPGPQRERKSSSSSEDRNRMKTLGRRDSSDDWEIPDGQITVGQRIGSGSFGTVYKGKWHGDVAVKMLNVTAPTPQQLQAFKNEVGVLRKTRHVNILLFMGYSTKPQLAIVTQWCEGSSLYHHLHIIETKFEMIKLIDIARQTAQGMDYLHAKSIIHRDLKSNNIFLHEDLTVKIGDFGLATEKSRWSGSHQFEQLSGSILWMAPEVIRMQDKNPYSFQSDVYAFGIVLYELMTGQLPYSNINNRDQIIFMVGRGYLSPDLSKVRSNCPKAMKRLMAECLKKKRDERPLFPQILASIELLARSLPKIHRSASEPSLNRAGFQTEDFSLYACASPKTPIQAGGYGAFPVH
T5 sequence (Q9NYL2 1-455 isoform Q9NYL2-2): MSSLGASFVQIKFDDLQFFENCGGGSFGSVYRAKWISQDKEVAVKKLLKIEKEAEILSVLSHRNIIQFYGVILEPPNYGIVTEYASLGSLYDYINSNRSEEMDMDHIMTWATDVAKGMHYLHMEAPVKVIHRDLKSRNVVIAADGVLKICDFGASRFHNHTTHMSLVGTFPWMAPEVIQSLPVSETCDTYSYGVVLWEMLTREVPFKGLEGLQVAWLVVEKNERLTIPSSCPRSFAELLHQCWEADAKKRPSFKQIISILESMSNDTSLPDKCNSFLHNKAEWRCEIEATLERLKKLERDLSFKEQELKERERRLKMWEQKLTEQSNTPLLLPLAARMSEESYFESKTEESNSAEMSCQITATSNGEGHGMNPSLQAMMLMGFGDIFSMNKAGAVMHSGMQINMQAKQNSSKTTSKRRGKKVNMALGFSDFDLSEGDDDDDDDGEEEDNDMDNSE
T6 sequence (Q8N4C8 whole entry): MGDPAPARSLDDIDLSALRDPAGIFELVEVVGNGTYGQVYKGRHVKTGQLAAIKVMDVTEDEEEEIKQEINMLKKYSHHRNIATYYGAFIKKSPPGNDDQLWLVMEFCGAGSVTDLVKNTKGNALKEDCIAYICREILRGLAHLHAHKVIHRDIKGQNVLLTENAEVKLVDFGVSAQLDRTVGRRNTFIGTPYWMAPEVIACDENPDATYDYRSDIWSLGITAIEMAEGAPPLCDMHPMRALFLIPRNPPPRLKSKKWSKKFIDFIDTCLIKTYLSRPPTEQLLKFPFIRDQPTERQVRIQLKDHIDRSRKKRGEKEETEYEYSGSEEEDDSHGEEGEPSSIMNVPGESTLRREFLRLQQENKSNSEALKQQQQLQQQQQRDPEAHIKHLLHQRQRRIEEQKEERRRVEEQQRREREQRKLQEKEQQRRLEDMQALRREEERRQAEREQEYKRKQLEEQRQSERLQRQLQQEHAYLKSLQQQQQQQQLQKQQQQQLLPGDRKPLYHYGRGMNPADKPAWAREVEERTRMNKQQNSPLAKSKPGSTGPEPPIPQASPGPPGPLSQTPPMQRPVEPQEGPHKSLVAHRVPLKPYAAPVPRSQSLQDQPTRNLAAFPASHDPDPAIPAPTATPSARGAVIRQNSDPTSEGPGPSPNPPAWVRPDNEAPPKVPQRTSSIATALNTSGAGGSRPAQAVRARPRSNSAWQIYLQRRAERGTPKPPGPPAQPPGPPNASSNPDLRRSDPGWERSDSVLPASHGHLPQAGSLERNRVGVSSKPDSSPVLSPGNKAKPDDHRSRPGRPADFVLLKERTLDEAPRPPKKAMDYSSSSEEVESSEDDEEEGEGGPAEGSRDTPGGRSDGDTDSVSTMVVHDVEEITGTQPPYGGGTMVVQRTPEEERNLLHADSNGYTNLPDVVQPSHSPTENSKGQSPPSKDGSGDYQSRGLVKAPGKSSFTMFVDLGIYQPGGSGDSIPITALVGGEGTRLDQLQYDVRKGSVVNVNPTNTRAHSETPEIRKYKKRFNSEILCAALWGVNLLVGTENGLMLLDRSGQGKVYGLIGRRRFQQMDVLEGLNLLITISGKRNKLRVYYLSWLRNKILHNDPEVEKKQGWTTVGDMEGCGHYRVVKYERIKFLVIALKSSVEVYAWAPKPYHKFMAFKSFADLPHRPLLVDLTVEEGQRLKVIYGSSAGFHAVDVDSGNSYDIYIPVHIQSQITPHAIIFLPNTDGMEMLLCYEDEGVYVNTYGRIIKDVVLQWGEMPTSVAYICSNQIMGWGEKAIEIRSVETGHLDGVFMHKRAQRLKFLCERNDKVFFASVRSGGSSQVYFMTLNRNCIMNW
T4 sequence (P09769 whole entry): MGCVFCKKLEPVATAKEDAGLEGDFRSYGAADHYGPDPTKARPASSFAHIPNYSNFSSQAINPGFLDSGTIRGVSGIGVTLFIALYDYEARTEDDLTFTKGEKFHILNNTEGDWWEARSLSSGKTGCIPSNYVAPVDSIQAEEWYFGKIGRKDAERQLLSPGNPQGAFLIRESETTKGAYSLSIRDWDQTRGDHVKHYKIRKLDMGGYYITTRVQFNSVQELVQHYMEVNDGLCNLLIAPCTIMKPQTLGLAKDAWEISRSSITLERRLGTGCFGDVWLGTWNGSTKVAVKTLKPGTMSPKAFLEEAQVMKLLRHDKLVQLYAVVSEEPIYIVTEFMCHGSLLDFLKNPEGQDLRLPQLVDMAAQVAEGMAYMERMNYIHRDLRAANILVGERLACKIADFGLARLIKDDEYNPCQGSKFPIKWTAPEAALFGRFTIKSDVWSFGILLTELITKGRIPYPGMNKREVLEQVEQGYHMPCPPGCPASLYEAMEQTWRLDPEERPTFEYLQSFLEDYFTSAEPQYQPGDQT

Compound | colony formation [1] | UV-induced phospho-JNK levels (phospho-JNK) | suppression of UV-induced apoptosis (SRB1 cells) | suppression of UV-induced apoptosis (NHEK cells) | IC50 (MST1 (STK4)) [nM] | remaining activity at 0.05 µM (BRAF(V600E); [3]) [%] | remaining activity at 0.2 µM (BRAF(V600E); [4]) [%] | remaining activity at 1 µM (BRAF(V600E); [5]) [%] | remaining activity at 10 µM (BRAF(V600E); [6]) [%] | IC50 (TAOK1) [nM] | apoptotic epidermal keratinocytes in irradiated skin [2] [apoptotic cells/mm skin] | suppression of UV-induced apoptosis (COLO16 cells) | remaining binding at 0.05 µM (MLK3 (MAP3K11); [3]) [%] | remaining binding at 0.2 µM (MLK3 (MAP3K11); [4]) [%] | remaining binding at 1 µM (MLK3 (MAP3K11); [5]) [%] | remaining binding at 10 µM (MLK3 (MAP3K11); [6]) [%] | IC50 (FGR) [nM] | IC50 (human full-length ZAK; MBP substrate, ATP 2.5 μM, read-out: biochemical IC50) [nM] | remaining activity at 1 µM (human full-length ZAK; at 1 μM, read-out: residual activity) [%] | IC50 (MINK (MINK1)) [nM]
CCCS(=O)(=O)Nc1ccc(F)c(C(=O)c2c[nH]c3ncc(Cl)cc23)c1F [PLX4720] | significant colony formation advantage | significantly suppressed; also recorded: potently suppresses | at least 70% | at least 70% | > 5000 | 38 | 19 | 3.9 | 0.1 | > 5000 | 4.9 ± 0.3 | at least 70% | 100 | 100 | 100 | 100 |  |  |  | 
CCCS(=O)(=O)Nc1ccc(F)c(C(=O)c2c[nH]c3ncc(-c4ccc(Cl)cc4)cc23)c1F [vemurafenib] |  |  |  |  |  |  |  |  |  |  |  |  |  |  |  |  | 63 | 187 ± 5 | 18.9 ± 0.5 | > 1000
